Results published in ChEMBL document CHEMBL4145521, “Regioselective synthesis of 3,4-diaryl-5-unsubstituted isoxazoles, analogues of natural cytostatic combretastatin A4” (Eur J Med Chem, 2018).

Key:
Type in all cases: functional
[1] = test system: HOP-62; assay: Cytotoxicity against human HOP62 cells assessed as cell growth at 0.01 uM incubated for 48 hrs by sulforhodamine B assay relative to control; conditions: HOP-62, 48 h, read-out: Activity
[2] = test system: CAKI-1; assay: Cytotoxicity against human Caki1 cells assessed as cell growth at 0.01 uM incubated for 48 hrs by sulforhodamine B assay relative to control; conditions: CAKI-1, 48 h, read-out: Activity
[3] = test system: CCRF-CEM; assay: Cytotoxicity against human CCRF-CEM cells assessed as cell growth at 0.1 uM incubated for 48 hrs by sulforhodamine B assay relative to control; conditions: read-out: Activity
[4] = test system: NCI-H23; assay: Cytotoxicity against human NCI-H23 cells assessed as cell growth at 0.1 uM incubated for 48 hrs by sulforhodamine B assay relative to control; conditions: NCI-H23, 48 h, read-out: Activity
[5] = test system: NCI-H522; assay: Cytotoxicity against human NCI-H522 cells assessed as cell growth at 0.1 uM incubated for 48 hrs by sulforhodamine B assay relative to control; conditions: NCI-H522, 48 h, read-out: Activity
[6] = test system: SK-OV-3; assay: Cytotoxicity against human SKOV3 cells assessed as cell growth at 0.1 uM incubated for 48 hrs by sulforhodamine B assay relative to control; conditions: SK-OV-3, 48 h, read-out: Activity
[7] = test system: RXF 393; assay: Cytotoxicity against human RXF393 cells assessed as cell growth at 0.1 uM incubated for 48 hrs by sulforhodamine B assay relative to control; conditions: RXF 393, 48 h, read-out: Activity
[8] = test system: K562; assay: Cytotoxicity against human K562 cells assessed as cell growth at 1 uM incubated for 48 hrs by sulforhodamine B assay relative to control; conditions: K562, 48 h, read-out: Activity
[9] = test system: RPMI-8226; assay: Cytotoxicity against human RPMI8226 cells assessed as cell growth at 1 uM incubated for 48 hrs by sulforhodamine B assay relative to control; conditions: RPMI-8226, 48 h, read-out: Activity
[10] = test system: NCI-H322M; assay: Cytotoxicity against human NCI-H322M cells assessed as cell growth at 1 uM incubated for 48 hrs by sulforhodamine B assay relative to control; conditions: read-out: Activity
[11] = test system: NCI-H522; assay: Cytotoxicity against human NCI-H522 cells assessed as cell growth at 1 uM incubated for 48 hrs by sulforhodamine B assay relative to control; conditions: NCI-H522, 48 h, read-out: Activity
[12] = test system: MDA-MB-435; assay: Cytotoxicity against human MDA-MB-435 cells assessed as cell growth at 1 uM incubated for 48 hrs by sulforhodamine B assay relative to control; conditions: MDA-MB-435, 48 h, read-out: Activity
[13] = test system: SK-MEL-2; assay: Cytotoxicity against human SK-MEL-2 cells assessed as cell growth at 1 uM incubated for 48 hrs by sulforhodamine B assay relative to control; conditions: SK-MEL-2, 48 h, read-out: Activity
[14] = test system: A498; assay: Cytotoxicity against human A498 cells assessed as cell growth at 1 uM incubated for 48 hrs by sulforhodamine B assay relative to control; conditions: A498, 48 h, read-out: Activity
[15] = test system: ACHN; assay: Cytotoxicity against human ACHN cells assessed as cell growth at 1 uM incubated for 48 hrs by sulforhodamine B assay relative to control; conditions: read-out: Activity
[16] = test system: CCRF-CEM; assay: Cytotoxicity against human CCRF-CEM cells assessed as cell growth at 10 uM incubated for 48 hrs by sulforhodamine B assay relative to control; conditions: read-out: Activity
[17] = test system: HOP-62; assay: Cytotoxicity against human HOP62 cells assessed as cell growth at 10 uM incubated for 48 hrs by sulforhodamine B assay relative to control; conditions: HOP-62, 48 h, read-out: Activity
[18] = test system: SF-295; assay: Cytotoxicity against human SF295 cells assessed as cell growth at 10 uM incubated for 48 hrs by sulforhodamine B assay relative to control; conditions: SF-295, 48 h, read-out: Activity
[19] = test system: SF-539; assay: Cytotoxicity against human SF539 cells assessed as cell growth at 10 uM incubated for 48 hrs by sulforhodamine B assay relative to control; conditions: SF-539, 48 h, read-out: Activity
[20] = test system: T47D; assay: Cytotoxicity against human T47D cells assessed as cell growth at 10 uM incubated for 48 hrs by sulforhodamine B assay relative to control; conditions: read-out: Activity
[21] = test system: HOP-92; assay: Cytotoxicity against human HOP92 cells assessed as cell growth at 100 uM incubated for 48 hrs by sulforhodamine B assay relative to control; conditions: HOP-92, 48 h, read-out: Activity
[22] = test system: OVCAR-8; assay: Cytotoxicity against human OVCAR8 cells assessed as cell growth at 100 uM incubated for 48 hrs by sulforhodamine B assay relative to control; conditions: OVCAR-8, 48 h, read-out: Activity
[23] = test system: DU-145; assay: Cytotoxicity against human DU145 cells assessed as cell growth at 100 uM incubated for 48 hrs by sulforhodamine B assay relative to control; conditions: DU-145, 48 h, read-out: Activity
[24] = test system: MCF7; assay: Cytotoxicity against human MCF7 cells assessed as cell growth at 100 uM incubated for 48 hrs by sulforhodamine B assay relative to control; conditions: MCF7, 48 h, read-out: Activity
[25] = test system: Hs-578T; assay: Cytotoxicity against human Hs 578T cells assessed as cell growth at 100 uM incubated for 48 hrs by sulforhodamine B assay relative to control; conditions: read-out: Activity
[26] = test system: K562; assay: Cytotoxicity against human K562 cells incubated for 48 hrs by sulforhodamine B assay; conditions: K562, 48 h
[27] = test system: HCC 2998; assay: Cytotoxicity against human HCC2998 cells incubated for 48 hrs by sulforhodamine B assay; conditions: HCC 2998, 48 h
[28] = test system: SF-268; assay: Cytotoxicity against human SF268 cells incubated for 48 hrs by sulforhodamine B assay; conditions: SF-268, 48 h
[29] = test system: SK-MEL-2; assay: Cytotoxicity against human SK-MEL-2 cells incubated for 48 hrs by sulforhodamine B assay; conditions: SK-MEL-2, 48 h
[30] = test system: MCF7; assay: Cytotoxicity against human MCF7 cells incubated for 48 hrs by sulforhodamine B assay; conditions: MCF7, 48 h
[31] = read-out: LC50 (the source's name)
[32] = read-out: pLC50 (the source's name) (converted)

COc1ccc(-c2nocc2-c2cc(OC)c(OC)c(OC)c2)cc1
growth at 0.01 µM [1]: 85% | growth at 0.01 µM [2]: 90% | growth at 0.1 µM [3]: 90% | growth at 0.1 µM [4]: 67% | growth at 0.1 µM [5]: -12% | growth at 0.1 µM [6]: 60% | growth at 0.1 µM [7]: 86% | growth at 1 µM [8]: 14% | growth at 1 µM [9]: 32% | growth at 1 µM [10]: 46% | growth at 1 µM [11]: -39% | growth at 1 µM [12]: -25% | growth at 1 µM [13]: 28% | growth at 1 µM [14]: -3% | growth at 1 µM [15]: 52% | growth at 10 µM [16]: 24% | growth at 10 µM [17]: 35% | growth at 10 µM [18]: 5% | growth at 10 µM [19]: 2% | growth at 10 µM [20]: 52% | growth at 100 µM [21]: -21% | growth at 100 µM [22]: 4% | growth at 100 µM [23]: 7% | growth at 100 µM [24]: 1% | growth at 100 µM [25]: 10% | GI50 ([26]; read-out: GI50): 0.0471 µM | LC50 (50% lethal concentration) ([26]; read-out: LC50): > 100 µM | TGI ([26]; read-out: TGI): > 100 µM | GI50 ([26]; read-out: pGI50 (converted)): 0.0468 µM | LC50 (50% lethal concentration) ([26]; read-out: pLC50 (converted)): > 100 µM | TGI ([26]; read-out: pTGI): > 100 µM | GI50 ([27]; read-out: GI50): 0.347 µM | CC50 [27, 31]: > 100 µM | TGI ([27]; read-out: TGI): 22.2 µM | GI50 ([27]; read-out: pGI50 (converted)): 0.347 µM | CC50 [27, 32]: > 100 µM | TGI ([27]; read-out: pTGI (converted)): 22.4 µM | GI50 ([28]; read-out: GI50): 0.549 µM | LC50 ([28]; read-out: LC50): > 100 µM | TGI ([28]; read-out: TGI): > 100 µM | GI50 ([28]; read-out: pGI50 (converted)): 0.55 µM | LC50 ([28]; read-out: pLC50 (converted)): > 100 µM | TGI ([28]; read-out: pTGI): > 100 µM | GI50 ([29]; read-out: GI50): 0.0664 µM | CC50 [29, 31]: > 100 µM | TGI ([29]; read-out: TGI): 69.2 µM | GI50 ([29]; read-out: pGI50 (converted)): 0.0661 µM | CC50 [29, 32]: > 100 µM | TGI ([29]; read-out: pTGI (converted)): 69.2 µM | GI50 ([30]; read-out: GI50): 0.0408 µM | LC50 ([30]; read-out: LC50): > 100 µM | TGI ([30]; read-out: TGI): > 100 µM | GI50 ([30]; read-out: pGI50 (converted)): 0.0407 µM | LC50 ([30]; read-out: pLC50 (converted)): > 100 µM | TGI ([30]; read-out: pTGI): > 100 µM
